Experimental data reported in US12286429B2, “5-oxo-1,2,3,5,8,8a-hexahydroindolizine-3-carboxamide derivatives useful as a factor XIa inhibitors” (Janssen Pharmaceutica NV, priority 2021, dated 2025).
pIC50: −log10 of the molar value.

What was measured:
Factor XIa = Factor XIa (Homo sapiens, UniProt P03951); test: Factor XIa inhibition assay utilizing a fluorophore-quencher pair peptide substrate (FLINT); type: biochemical; settings: 11-point, 3-fold serial dilution, top 100 nM; 30 min preincubation; 15 μM 5Fam-KLTRAETV-K5Tamra substrate; kinetic reads over 30 min; read-out: FXIa Inhibition IC50
Excerpt: Biological Example 1: Factor XIa Inhibition Assay Utilizing a Fluorophore-Quencher Pair Peptide Substrate
A fluorescence intensity (FLINT) based assay was used to monitor inhibition of Factor XIa. The peptide substrate, 5Fam-KLTRAETV-K5Tamra (purchased from New England Peptide) was chosen based on the FXI sequence. Conversion of zymogen FXI to its activated form, FXIa, occurs by proteolytic cleavage by […] at two sites, Arg146 and Arg180. The custom peptide used in this assay was based on the Arg146 cleavage site of FXI. The peptide substrate was designed with a fluorophore-quencher pair, where the fluorescence is quenched until FXIa cleaves the 8-mer peptide after the Arg residue.
The Factor XIa FLINT assay was used with the following 5Fam-KLTRAETV-K5Tamra assay buffer: 50 mM Tris, pH 7.5, 100 mM NaCl, 5 mM CaCl2, 0.1 mg/mL BSA, 0.03% CHAPS. Assay buffer was prepared by mixing all ingredients fresh. 5Fam-KLTRAETV-K5Tamra peptide substrate was first prepared at 10 mM in 100% DMSO, then diluted to 3 mM in 100% DMSO. Assay buffer was then added directly to the 3 mM stock of substrate to prepare the 30 μM 2× working concentration (15 μM final concentration). The 2× Factor XIa stock solution was prepared by diluting 6.562 μM stock in 1× assay buffer for a […].
Test compound(s) were run in an 11-point, 3-fold serial dilution with a final top compound concentration of 100 nM. Final DMSO in assay was 2%. FXIa was preincubated with compound for 30-minutes and then substrate was added to initiate the reaction. The assay was run with kinetic (KIN) reads at 5 min intervals over 30 minutes. […] More specifically, the assay was run as follows: • 100 nL of 0.01 mM test compound was dispensed into black 384-well non-binding Greiner BioOne 784900 plate for 0.1 μM final concentration, • 5 μL of 1× assay buffer was dispensed to column 24 (low control) and 5 μL 2× Factor XIa solution was dispensed to columns 1-23 (column 23 high control); • the plate was centrifuged with a “cover” plate at 500 rpm for 1 min • the plate was pre-incubated for 30 minutes at room temperature with plate covered; • 5 μL of 2×5Fam-KLTRAETV-K5Tamra peptide substrate was dispensed into the entire plate, columns 1-24; • the plate was centrifuged with a “cover” plate at 500 rpm for 1 min; • the plate was read monitoring fluorescence intensity on the BMG PHERAStar at room temperature, using fluorescence module 485 nm/520 nm.
(§1) Percent inhibition (IC50) curves were generated per compound tested, and data was analyzed using a 4-parameter logistic fit using GeneData Screener. The relative fluorescence unit (RFU) values were normalized to percent inhibition using the following equation: % inhibition=((HC−LC)−(compound−LC)/(HC−LC))*100
where LC—low control=mean signal of no Factor XIa or 100% inhibition of Factor XIa; HC—high control=mean signal of Factor XIa+5Fam-KLTRAETV-K5Tamra peptide substrate with DMSO only.
(§2) An 11-point dose response curve for the test compound(s) was generated using GENDATA to determine IC50 value based on the following equation: Y=Bottom+(Top−Bottom)/(1+10^((log IC50−X)*HillSlope))
(§3) where Y is the % inhibition in the presence of X inhibitor concentration, Top=high control=mean signal of Factor XIa+5Fam-KLTRAETV-K5Tamra peptide substrate with DMSO only; Bottom=low control—mean signal of no Factor XIa or 100% inhibition of Factor XIa; HillSlope—Hill coefficient; and IC50=concentration of compound with 50% inhibition in relation to top/high control.

human plasma kallikrein = human plasma kallikrein (Homo sapiens, UniProt P03952); test: Kallikrein inhibition assay utilizing a quenched AMC peptide substrate (FLINT); type: biochemical; settings: 11-point, 3-fold serial dilution, top 1 μM; 30 min preincubation; 2 nM kallikrein; 50 μM Z-Gly-Pro-Arg-AMC; kinetic reads over 30 min
Experimental: Biological Example 2: Kallikrein Inhibition Assay Utilizing a Quenched AMC Peptide Substrate
A fluorescence intensity (FLINT) based assay was used to monitor inhibition of human plasma kallikrein. The peptide substrate, Z-Gly-Pro-Arg-AMC (Purchased from Bachem; Catalog #I-1150) was chosen based on its relatively low KM for kallikrein which enables running the assay at lower substrate concentrations to control background fluorescence. The kinetic parameters for this substrate were determined by fitting titration data to the Michaelis-Menten equation yielding a KM=40 μM, kcat=0.76 s^−1, and kcat/KM=18932 M^−1s^−1.
The Kallikrein FLINT assay was used with the following Z-Gly-Pro-Arg-AMC assay buffer: 50 mM Tris, pH 7.5, 100 mM NaCl, 5 mM CaCl2, 0.1 mg/mL BSA, 0.03% CHAPS. Assay buffer was prepared by mixing all ingredients fresh. 2× Z-Gly-Pro-Arg-AMC peptide substrate was prepared by diluting 10 mM stock into 1× assay buffer for a 100 μM working concentration (50 μM final concentration). The 2× kallikrein stock solution was prepared by diluting 14.76 μM stock in 1× assay buffer for a 4 nM working stock solution (2 nM final concentration).
Test compound(s) were run in an 11-point, 3-fold serial dilution with a final top compound concentration of 1 μM. Final DMSO in assay was 2%. Plasma kallikrein was pre-incubated for 30-minute with compound and then 50 μM substrate was added to initiate the reaction. The assay was run with kinetic (KIN) reads at 5 min intervals over 30 minutes. The time course was linear using 2 nM kallikrein greater than 30 minutes. More specifically, the assay was run as follows: • 100 nL of 0.1 mM test compound was dispensed into black 384-well non-binding Greiner BioOne 784900 plate for 1 μM final concentration; • 5 μL of 1× assay buffer was dispensed to columns 24 (low control) and 5 μL 2× human kallikrein enzyme solution was dispensed to columns 1-23 (column 23 high control); • the plate was centrifuged with a “cover” plate at 500 rpm for 1 min • the plate was pre-incubated for 30 minutes at room temperature with plate covered; • 5 μL of 2× Z-Gly-Pro-Arg-AMC peptide substrate was dispensed into the entire plate, columns 1-24; • the plate was centrifuged with a “cover” plate at 500 rpm for 1 min; • the plate was read monitoring fluorescence intensity on the BMG PHERAStar at room temperature, using fluorescence module 340 nm/440 nm.
as §1
where LC—low control=mean signal of […] 100% inhibition of human kallikrein enzyme; HC—high control=mean signal of […]+Z-Gly-Pro-Arg-AMC peptide substrate with DMSO only.
as §2
as §3, with “human kallikrein enzyme+Z-Gly-Pro-Arg-AMC” for “Factor XIa+5Fam-KLTRAETV-K5Tamra”, “human kallikrein enzyme” for “Factor XIa”, “human kallikrein enzyme;” for “Factor XIa;”

Factor XIa, sequence (P03951 388-625 limits assumed): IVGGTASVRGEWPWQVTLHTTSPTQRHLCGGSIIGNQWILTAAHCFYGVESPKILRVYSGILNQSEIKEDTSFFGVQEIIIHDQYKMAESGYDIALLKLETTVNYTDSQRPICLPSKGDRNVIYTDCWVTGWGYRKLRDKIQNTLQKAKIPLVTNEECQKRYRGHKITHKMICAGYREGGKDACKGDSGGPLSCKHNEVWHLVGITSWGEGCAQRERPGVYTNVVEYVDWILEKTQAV
Factor XIa, sequence (P03951 19-387 partner limits assumed): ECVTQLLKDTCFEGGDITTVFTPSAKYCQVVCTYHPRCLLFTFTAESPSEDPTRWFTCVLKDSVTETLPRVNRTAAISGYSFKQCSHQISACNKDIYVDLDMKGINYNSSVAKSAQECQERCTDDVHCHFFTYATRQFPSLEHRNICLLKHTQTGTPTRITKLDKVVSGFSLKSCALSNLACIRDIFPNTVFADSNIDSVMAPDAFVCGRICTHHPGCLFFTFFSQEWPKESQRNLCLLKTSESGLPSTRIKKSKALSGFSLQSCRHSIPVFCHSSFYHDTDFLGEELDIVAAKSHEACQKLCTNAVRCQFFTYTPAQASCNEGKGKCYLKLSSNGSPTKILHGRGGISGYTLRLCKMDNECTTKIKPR
human plasma kallikrein, sequence (P03952 391-638 limits assumed): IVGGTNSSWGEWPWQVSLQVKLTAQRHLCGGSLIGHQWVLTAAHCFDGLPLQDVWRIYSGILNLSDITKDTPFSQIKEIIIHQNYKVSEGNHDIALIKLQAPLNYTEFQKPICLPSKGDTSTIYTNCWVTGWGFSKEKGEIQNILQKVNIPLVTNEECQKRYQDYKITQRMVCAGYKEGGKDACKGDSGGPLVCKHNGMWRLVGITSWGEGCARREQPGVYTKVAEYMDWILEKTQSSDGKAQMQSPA
human plasma kallikrein, sequence (P03952 20-390 partner limits assumed): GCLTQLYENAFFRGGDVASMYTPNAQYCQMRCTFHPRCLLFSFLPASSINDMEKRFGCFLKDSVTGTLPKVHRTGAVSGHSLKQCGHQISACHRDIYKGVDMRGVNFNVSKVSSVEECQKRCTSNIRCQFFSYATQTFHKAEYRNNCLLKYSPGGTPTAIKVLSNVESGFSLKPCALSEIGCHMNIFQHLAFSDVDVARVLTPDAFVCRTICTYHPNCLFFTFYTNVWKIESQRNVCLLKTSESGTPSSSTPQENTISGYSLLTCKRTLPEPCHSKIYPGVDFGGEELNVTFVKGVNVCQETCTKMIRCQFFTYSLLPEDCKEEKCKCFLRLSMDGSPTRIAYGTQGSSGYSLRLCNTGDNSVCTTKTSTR

Q: How did the pIC50 (Factor XIa) turn out when `CO[C@@H]1C[C@@H](C(=O)Nc2ccc3nccnc3c2)N2C(=O)C=C(c3c(-n4cnnn4)ccc(Cl)c3F)CC12` (mixture of isomers) [ID No. 46, (1R,3S)-7-[3-Chloro-2-fluoro-6-(tetrazol-1-yl)phenyl]-1-methoxy-5-oxo-N-quinoxalin-6-yl-2,3,8,8a-tetrahydro-1H-indolizine-3-carboxamide] was run?
A: The pIC50 was 8.28.

Q: And the pIC50 (human plasma kallikrein)?
A: Its pIC50 is 7.91.

Q: `O=C(Nc1ccc(-c2nc(=O)o[nH]2)cc1F)[C@@H]1CCC2CC(c3c(-n4cnnn4)ccc(Cl)c3F)=CC(=O)N21` (mixture of isomers) [ID No. 47, (3S)-7-(3-Chloro-2-fluoro-6-(1H-tetrazol-1-yl)phenyl)-N-(2-fluoro-4-(5-oxo-2,5-dihydro-1,2,4-oxadiazol-3-yl)phenyl)-5-oxo-1,2,3,5,8,8a-hexahydroindolizine-3-carboxamide] was tested. Which pIC50 (Factor XIa) did it give?
A: Its pIC50 is 7.63.

Q: And the pIC50 (human plasma kallikrein)?
A: Its pIC50 is 6.56.

Q: `O=C(Nc1ccc(-n2ccnn2)cc1)[C@@H]1CCC2CC(c3c(-n4cnnn4)ccc(Cl)c3F)=CC(=O)N21` (mixture of isomers) [ID No. 48, (3S)—N-(4-(1H-1,2,3-triazol-1-yl)phenyl)-7-(3-chloro-2-fluoro-6-(1H-tetrazol-1-yl)phenyl)-5-oxo-1,2,3,5,8,8a-hexahydroindolizine-3-carboxamide] was tested. Which pIC50 (Factor XIa) did it give?
A: Its pIC50 is 7.67.

Q: What about the pIC50 (human plasma kallikrein) of the same compound?
A: Its pIC50 is 7.06.

Q: Which results are given for `O=C(Nc1ccc(-n2nccn2)cc1)[C@@H]1CCC2CC(c3c(-n4cnnn4)ccc(Cl)c3F)=CC(=O)N21` (mixture of isomers) [ID No. 49, (3S)—N-(4-(2H-1,2,3-triazol-2-yl)phenyl)-7-(3-chloro-2-fluoro-6-(1H-tetrazol-1-yl)phenyl)-5-oxo-1,2,3,5,8,8a-hexahydroindolizine-3-carboxamide]?
A: pIC50 (Factor XIa): 7.52; pIC50 (human plasma kallikrein): 7.27

Q: How did the pIC50 (Factor XIa) turn out when `O=C(Nc1ccc2nc[nH]c2c1)[C@@H]1CCC2CC(c3c(-n4cnnn4)ccc(Cl)c3F)=CC(=O)N21` (mixture of isomers) [ID No. 53, (3S)—N-(1H-benzo[d]imidazol-6-yl)-7-(3-chloro-2-fluoro-6-(1H-tetrazol-1-yl)phenyl)-5-oxo-1,2,3,5,8,8a-hexahydroindolizine-3-carboxamide] was run?
A: The pIC50 was 7.95.

Q: And the pIC50 (human plasma kallikrein)?
A: The pIC50 was 7.25.

Q: `O=C(Nc1ccc2ncoc2c1)[C@@H]1CCC2CC(c3c(-n4cnnn4)ccc(Cl)c3F)=CC(=O)N21` (mixture of isomers) [ID No. 54, (3S)—N-(Benzo[d]oxazol-6-yl)-7-(3-chloro-2-fluoro-6-(1H-tetrazol-1-yl)phenyl)-5-oxo-1,2,3,5,8,8a-hexahydroindolizine-3-carboxamide] was tested. Which pIC50 (Factor XIa) did it give?
A: Its pIC50 is 7.94.

Q: And the pIC50 (human plasma kallikrein)?
A: Its pIC50 is 7.23.

Q: How did the pIC50 (Factor XIa) turn out when `O=C(Nc1ccc2ncsc2c1)[C@@H]1CCC2CC(c3c(-n4cnnn4)ccc(Cl)c3F)=CC(=O)N21` (mixture of isomers) [ID No. 55, (3S)—N-(Benzo[d]thiazol-6-yl)-7-(3-chloro-2-fluoro-6-(1H-tetrazol-1-yl)phenyl)-5-oxo-1,2,3,5,8,8a-hexahydroindolizine-3-carboxamide] was run?
A: The pIC50 was 8.18.

Q: What about the pIC50 (human plasma kallikrein) of the same compound?
A: The pIC50 was 7.56.

Q: `O=C(Nc1ccc2n[nH]nc2c1)[C@@H]1CCC2CC(c3c(-n4cnnn4)ccc(Cl)c3F)=CC(=O)N21` (mixture of isomers) [ID No. 56, (3S)—N-(2H-benzo[d][1,2,3]triazol-5-yl)-7-(3-chloro-2-fluoro-6-(1H-tetrazol-1-yl)phenyl)-5-oxo-1,2,3,5,8,8a-hexahydroindolizine-3-carboxamide] was tested. Which pIC50 (Factor XIa) did it give?
A: Its pIC50 is 8.27.

Q: What about the pIC50 (human plasma kallikrein) of the same compound?
A: The pIC50 was 7.72.

Q: How did the pIC50 (Factor XIa) turn out when `O=C(Nc1ccc2[nH]nc(O)c2c1)[C@@H]1CCC2CC(c3c(-n4cnnn4)ccc(Cl)c3F)=CC(=O)N21` (mixture of isomers) [ID No. 57, (3S)-7-[3-Chloro-2-fluoro-6-(tetrazol-1-yl)phenyl]-N-(3-hydroxy-1H-indazol-5-yl)-5-oxo-2,3,8,8a-tetrahydro-1H-indolizine-3-carboxamide] was run?
A: Its pIC50 is 7.78.

Q: And the pIC50 (human plasma kallikrein)?
A: Its pIC50 is 7.44.

Q: What does the source list for `O=C(O)c1ccc(NC(=O)[C@@H]2CCC3CC(c4c(-n5cnnn5)ccc(Cl)c4F)=CC(=O)N32)cc1F` (mixture of isomers) [ID No. 58, 4-[[(3S)-7-[3-Chloro-2-fluoro-6-(tetrazol-1-yl)phenyl]-5-oxo-2,3,8,8a-tetrahydro-1H-indolizine-3-carbonyl]amino]-2-fluoro-benzoic acid]?
A: pIC50 (Factor XIa): 8.92; pIC50 (human plasma kallikrein): 6.97

Q: `O=C(Nc1ccc2[nH]c(=O)cc(O)c2c1)[C@@H]1CCC2CC(c3c(-n4cnnn4)ccc(Cl)c3F)=CC(=O)N21` (mixture of isomers) [ID No. 64, (3S)-7-[3-Chloro-2-fluoro-6-(tetrazol-1-yl)phenyl]-N-(4-hydroxy-2-oxo-1H-quinolin-6-yl)-5-oxo-2,3,8,8a-tetrahydro-1H-indolizine-3-carboxamide] was tested. Which pIC50 (Factor XIa) did it give?
A: The pIC50 was 8.52.

Q: What about the pIC50 (human plasma kallikrein) of the same compound?
A: Its pIC50 is 8.02.

Q: Which results are given for `O=C(Nc1ccc(-c2cnn[nH]2)cc1)[C@@H]1CCC2CC(c3c(-n4cnnn4)ccc(Cl)c3F)=CC(=O)N21` (mixture of isomers) [ID No. 68, (3S)-7-[3-Chloro-2-fluoro-6-(tetrazol-1-yl)phenyl]-5-oxo-N-[4-(1H-triazol-5-yl)phenyl]-2,3,8,8a-tetrahydro-1H-indolizine-3-carboxamide]?
A: pIC50 (Factor XIa): 8.77; pIC50 (human plasma kallikrein): 7.33

Q: Which results are given for `O=C(Nc1ccc(-c2nc[nH]n2)cc1)[C@@H]1CCC2CC(c3c(-n4cnnn4)ccc(Cl)c3F)=CC(=O)N21` (mixture of isomers) [ID No. 69, (3S)-7-[3-Chloro-2-fluoro-6-(tetrazol-1-yl)phenyl]-5-oxo-N-[4-(1H-1,2,4-triazol-3-yl)phenyl]-2,3,8,8a-tetrahydro-1H-indolizine-3-carboxamide]?
A: pIC50 (Factor XIa): 8.14; pIC50 (human plasma kallikrein): 7.28
